Assay results from ChEMBL document CHEMBL1131542, “A potent dipeptide inhibitor of dipeptidyl peptidase IV” (Bioorg Med Chem Lett, 1998).
Square brackets hold non-standard residues; d marks the D form. Peptide text beside a SMILES is read from it. Tic = O=C(O)[C@@H]1Cc2ccccc2CN1

How the values were obtained:
Dipeptidyl peptidase 4 [1] = target: T1, Dipeptidyl peptidase 4 (Homo sapiens, UniProt P27487); assay: Inhibitory concentration against Dipeptidyl peptidase IV (DPP IV)
Target sequence in this assay (P27487 whole entry): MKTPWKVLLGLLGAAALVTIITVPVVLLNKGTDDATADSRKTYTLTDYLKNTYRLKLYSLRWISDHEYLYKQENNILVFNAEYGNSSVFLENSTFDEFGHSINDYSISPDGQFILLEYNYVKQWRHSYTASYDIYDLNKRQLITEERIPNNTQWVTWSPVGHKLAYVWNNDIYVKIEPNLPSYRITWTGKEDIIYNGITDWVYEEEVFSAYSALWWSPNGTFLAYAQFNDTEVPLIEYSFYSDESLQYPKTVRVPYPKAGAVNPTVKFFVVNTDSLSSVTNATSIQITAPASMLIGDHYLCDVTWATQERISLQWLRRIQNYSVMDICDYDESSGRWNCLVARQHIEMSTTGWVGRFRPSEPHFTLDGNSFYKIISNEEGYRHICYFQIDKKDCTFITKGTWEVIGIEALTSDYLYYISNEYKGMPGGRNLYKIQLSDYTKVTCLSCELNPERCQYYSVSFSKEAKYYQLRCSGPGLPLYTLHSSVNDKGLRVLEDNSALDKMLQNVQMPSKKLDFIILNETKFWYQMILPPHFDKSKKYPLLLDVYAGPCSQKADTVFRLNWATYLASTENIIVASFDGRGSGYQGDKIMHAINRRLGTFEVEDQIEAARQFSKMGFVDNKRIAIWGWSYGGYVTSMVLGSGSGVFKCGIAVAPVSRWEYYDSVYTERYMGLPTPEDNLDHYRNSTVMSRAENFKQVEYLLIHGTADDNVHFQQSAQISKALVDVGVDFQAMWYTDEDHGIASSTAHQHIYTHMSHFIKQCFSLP

Dipeptidyl peptidase 4 [2] = target: T1, Dipeptidyl peptidase 4; assay: Percent inhibition of Dipeptidyl peptidase IV (DPP IV) at a concentration of 10 uM
Target sequence in this assay (P27487 whole entry, looked up): as the sequence (P27487 whole entry) above

Dipeptidyl peptidase 4 [3] = target: T1, Dipeptidyl peptidase 4; assay: Percent inhibition against Dipeptidylpeptidase IV (DPP IV) at a concentration of 10 uM
Target sequence in this assay (P27487 whole entry, looked up): as the sequence (P27487 whole entry) above

Dipeptidyl peptidase 4 [4] = target: T1, Dipeptidyl peptidase 4; assay: Percent inhibition against Dipeptidyl peptidase IV (DPP IV) at a concentration of 1 uM
Target sequence in this assay (P27487 whole entry, looked up): as the sequence (P27487 whole entry) above

| Compound | IC50 (Dipeptidyl peptidase 4 [1]) | inhibition (Dipeptidyl peptidase 4 [2]) | inhibition (Dipeptidyl peptidase 4 [4]) | also measured |
| --- | --- | --- | --- | --- |
| N[C@@H](Cc1c[nH]c2ccccc12)C(=O)N1Cc2ccccc2C[C@H]1C(=O)O (H-Trp-[Tic]-OH) | 5.7 µM | 59% |  |  |
| N[C@@H](Cc1c[nH]c2ccccc12)C(=O)N1Cc2ccccc2C[C@H]1C(=O)N[C@@H](CO)C(=O)O (H-Trp-[Tic]-Ser-OH) | 7.9 µM | 53% |  |  |
| COc1c(O)cc2c(c1O)CN(C(=O)[C@@H](N)Cc1c[nH]c3ccccc13)[C@H](C(=O)N[C@@H](CC(CO)CO)C(=O)O)C2 |  |  |  | inhibition (Dipeptidyl peptidase 4 [3]): 7.7% |
| N[C@@H](Cc1c[nH]c2ccccc12)C(=O)N1Cc2ccccc2C[C@H]1C(=O)N[C@@H](CCC(=O)O)C(=O)O (H-Trp-[Tic]-Glu-OH) | 7 µM | 62% |  |  |
| CC[C@H](C)[C@H](NC(=O)[C@H](Cc1c[nH]cn1)NC(=O)CNC(=O)[C@H](CCC(=O)O)NC(=O)[C@H](CCC(N)=O)NC(=O)[C@H](CC(=O)O)NC(=O)[C@H](CC(N)=O)NC(=O)[C@H](CCCN=C(N)N)NC(=O)[C@H](C)NC(=O)[C@@H]1Cc2ccccc2CN1C(=O)CN)C(=O)N[C@@H](CC(C)C)C(=O)N[C@@H](CCCCN)C(=O)N[C@@H](CCSC)C(=O)N[C@@H](Cc1ccccc1)C(=O)N1CCC[C@H]1C(=O)N[C@@H](CO)C(=O)N[C@H](C(=O)N[C@@H](Cc1c[nH]c2ccccc12)C(=O)N[C@@H](Cc1ccc(O)cc1)C(=O)N[C@H](C(=O)O)C(C)C)[C@@H](C)O (H-G[Tic]ARNDQEGHILKMFPSTWYV-OH) |  |  | 0% |  |
| CC[C@H](C)[C@H](NC(=O)[C@H](Cc1c[nH]cn1)NC(=O)CNC(=O)[C@H](CCC(=O)O)NC(=O)[C@H](CCC(N)=O)NC(=O)[C@H](CC(=O)O)NC(=O)[C@H](CC(N)=O)NC(=O)[C@H](CCCN=C(N)N)NC(=O)[C@H](C)NC(=O)[C@@H]1Cc2ccccc2CN1C(=O)[C@@H](N)Cc1ccc(O)cc1)C(=O)N[C@@H](CC(C)C)C(=O)N[C@@H](CCCCN)C(=O)N[C@@H](CCSC)C(=O)N[C@@H](Cc1ccccc1)C(=O)N1CCC[C@H]1C(=O)N[C@@H](CO)C(=O)N[C@H](C(=O)N[C@@H](Cc1c[nH]c2ccccc12)C(=O)N[C@@H](Cc1ccc(O)cc1)C(=O)N[C@H](C(=O)O)C(C)C)[C@@H](C)O (H-Y[Tic]ARNDQEGHILKMFPSTWYV-OH) |  |  | 12% |  |
| CC[C@H](C)[C@H](NC(=O)[C@H](Cc1c[nH]cn1)NC(=O)CNC(=O)[C@H](CCC(=O)O)NC(=O)[C@H](CCC(N)=O)NC(=O)[C@H](CC(=O)O)NC(=O)[C@H](CC(N)=O)NC(=O)[C@H](CCCN=C(N)N)NC(=O)[C@H](C)NC(=O)[C@@H]1Cc2ccccc2CN1C(=O)[C@@H](N)Cc1c[nH]c2ccccc12)C(=O)N[C@@H](CC(C)C)C(=O)N[C@@H](CCCCN)C(=O)N[C@@H](CCSC)C(=O)N[C@@H](Cc1ccccc1)C(=O)N1CCC[C@H]1C(=O)N[C@@H](CO)C(=O)N[C@H](C(=O)N[C@@H](Cc1c[nH]c2ccccc12)C(=O)N[C@@H](Cc1ccc(O)cc1)C(=O)N[C@H](C(=O)O)C(C)C)[C@@H](C)O (H-W[Tic]ARNDQEGHILKMFPSTWYV-OH) |  |  | 61% |  |
| CC[C@H](C)[C@H](NC(=O)[C@H](Cc1c[nH]cn1)NC(=O)CNC(=O)[C@H](CCC(=O)O)NC(=O)[C@H](CCC(N)=O)NC(=O)[C@H](CC(=O)O)NC(=O)[C@H](CC(N)=O)NC(=O)[C@H](CCCN=C(N)N)NC(=O)[C@H](C)NC(=O)[C@@H]1Cc2ccccc2CN1C(=O)[C@@H](N)Cc1ccccc1)C(=O)N[C@@H](CC(C)C)C(=O)N[C@@H](CCCCN)C(=O)N[C@@H](CCSC)C(=O)N[C@@H](Cc1ccccc1)C(=O)N1CCC[C@H]1C(=O)N[C@@H](CO)C(=O)N[C@H](C(=O)N[C@@H](Cc1c[nH]c2ccccc12)C(=O)N[C@@H](Cc1ccc(O)cc1)C(=O)N[C@H](C(=O)O)C(C)C)[C@@H](C)O (H-F[Tic]ARNDQEGHILKMFPSTWYV-OH) |  |  | 4% |  |
| CC[C@H](C)[C@H](NC(=O)[C@H](Cc1c[nH]cn1)NC(=O)CNC(=O)[C@H](CCC(=O)O)NC(=O)[C@H](CCC(N)=O)NC(=O)[C@H](CC(=O)O)NC(=O)[C@H](CC(N)=O)NC(=O)[C@H](CCCN=C(N)N)NC(=O)[C@H](C)NC(=O)[C@@H]1Cc2ccccc2CN1C(=O)[C@H]1CCCN1)C(=O)N[C@@H](CC(C)C)C(=O)N[C@@H](CCCCN)C(=O)N[C@@H](CCSC)C(=O)N[C@@H](Cc1ccccc1)C(=O)N1CCC[C@H]1C(=O)N[C@@H](CO)C(=O)N[C@H](C(=O)N[C@@H](Cc1c[nH]c2ccccc12)C(=O)N[C@@H](Cc1ccc(O)cc1)C(=O)N[C@H](C(=O)O)C(C)C)[C@@H](C)O |  |  | 2% |  |
| CC[C@H](C)[C@H](NC(=O)[C@H](Cc1c[nH]cn1)NC(=O)CNC(=O)[C@H](CCC(=O)O)NC(=O)[C@H](CCC(N)=O)NC(=O)[C@H](CC(=O)O)NC(=O)[C@H](CC(N)=O)NC(=O)[C@H](CCCN=C(N)N)NC(=O)[C@H](C)NC(=O)[C@@H]1Cc2ccccc2CN1C(=O)[C@@H](N)CCC(N)=O)C(=O)N[C@@H](CC(C)C)C(=O)N[C@@H](CCCCN)C(=O)N[C@@H](CCSC)C(=O)N[C@@H](Cc1ccccc1)C(=O)N1CCC[C@H]1C(=O)N[C@@H](CO)C(=O)N[C@H](C(=O)N[C@@H](Cc1c[nH]c2ccccc12)C(=O)N[C@@H](Cc1ccc(O)cc1)C(=O)N[C@H](C(=O)O)C(C)C)[C@@H](C)O (H-Q[Tic]ARNDQEGHILKMFPSTWYV-OH) |  |  | 4% |  |
